Test results from BindingDB's records for PubMed 8510008 (Eli Lilly, 1993).

How the values were obtained:
[1] = target: 5-hydroxytryptamine receptor 2A (Rattus norvegicus, UniProt P14842)
[2] = target: T1, 5-hydroxytryptamine receptor 2C (Homo sapiens, UniProt P28335)
T1 sequence (P28335 whole entry): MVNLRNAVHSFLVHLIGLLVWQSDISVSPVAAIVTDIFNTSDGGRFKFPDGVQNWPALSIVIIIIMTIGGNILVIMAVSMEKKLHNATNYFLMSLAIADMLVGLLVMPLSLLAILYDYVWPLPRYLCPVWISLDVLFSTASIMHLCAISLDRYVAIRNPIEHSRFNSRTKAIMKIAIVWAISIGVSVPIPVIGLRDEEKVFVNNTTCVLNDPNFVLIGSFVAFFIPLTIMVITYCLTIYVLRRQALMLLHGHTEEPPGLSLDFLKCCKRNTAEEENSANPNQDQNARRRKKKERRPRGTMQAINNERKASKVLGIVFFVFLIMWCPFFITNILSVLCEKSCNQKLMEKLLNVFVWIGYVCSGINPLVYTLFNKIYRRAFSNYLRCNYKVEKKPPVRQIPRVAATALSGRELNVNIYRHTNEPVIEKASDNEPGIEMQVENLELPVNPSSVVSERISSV

[3] = target: 5-hydroxytryptamine receptor 2A (Sus scrofa, UniProt P50129)
[4] = target: 5-hydroxytryptamine receptor 2A (Macaca mulatta, UniProt P50128)
Chain of 5-hydroxytryptamine receptor 2A (Macaca mulatta, UniProt P50128) (P50128 whole entry): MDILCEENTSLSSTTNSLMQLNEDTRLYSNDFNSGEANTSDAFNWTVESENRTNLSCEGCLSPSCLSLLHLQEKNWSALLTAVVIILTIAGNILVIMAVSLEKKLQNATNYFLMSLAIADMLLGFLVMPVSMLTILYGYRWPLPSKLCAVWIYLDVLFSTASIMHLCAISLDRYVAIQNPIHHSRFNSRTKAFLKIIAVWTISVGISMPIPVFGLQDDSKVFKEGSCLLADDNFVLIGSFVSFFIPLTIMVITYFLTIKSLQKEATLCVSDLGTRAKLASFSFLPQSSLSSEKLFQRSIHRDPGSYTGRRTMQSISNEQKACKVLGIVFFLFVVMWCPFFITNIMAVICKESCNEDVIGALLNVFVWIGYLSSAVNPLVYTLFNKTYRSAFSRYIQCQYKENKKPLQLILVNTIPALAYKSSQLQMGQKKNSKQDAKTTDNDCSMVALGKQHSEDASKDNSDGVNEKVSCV

Chain of 5-hydroxytryptamine receptor 2A (Rattus norvegicus, UniProt P14842) (P14842 whole entry): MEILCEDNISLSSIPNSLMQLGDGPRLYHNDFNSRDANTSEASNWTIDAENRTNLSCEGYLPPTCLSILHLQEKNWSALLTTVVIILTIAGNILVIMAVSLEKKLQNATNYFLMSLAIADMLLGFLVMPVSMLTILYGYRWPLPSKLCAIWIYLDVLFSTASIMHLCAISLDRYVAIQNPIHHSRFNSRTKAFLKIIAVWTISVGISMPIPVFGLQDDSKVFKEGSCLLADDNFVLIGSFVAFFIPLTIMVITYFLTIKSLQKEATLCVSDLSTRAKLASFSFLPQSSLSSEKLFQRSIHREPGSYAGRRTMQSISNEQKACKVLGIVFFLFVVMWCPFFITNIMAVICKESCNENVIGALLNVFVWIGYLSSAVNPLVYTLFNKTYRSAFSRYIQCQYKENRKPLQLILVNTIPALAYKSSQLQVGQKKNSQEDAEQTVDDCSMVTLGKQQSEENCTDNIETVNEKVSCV
Chain of 5-hydroxytryptamine receptor 2A (Sus scrofa, UniProt P50129) (P50129 whole entry): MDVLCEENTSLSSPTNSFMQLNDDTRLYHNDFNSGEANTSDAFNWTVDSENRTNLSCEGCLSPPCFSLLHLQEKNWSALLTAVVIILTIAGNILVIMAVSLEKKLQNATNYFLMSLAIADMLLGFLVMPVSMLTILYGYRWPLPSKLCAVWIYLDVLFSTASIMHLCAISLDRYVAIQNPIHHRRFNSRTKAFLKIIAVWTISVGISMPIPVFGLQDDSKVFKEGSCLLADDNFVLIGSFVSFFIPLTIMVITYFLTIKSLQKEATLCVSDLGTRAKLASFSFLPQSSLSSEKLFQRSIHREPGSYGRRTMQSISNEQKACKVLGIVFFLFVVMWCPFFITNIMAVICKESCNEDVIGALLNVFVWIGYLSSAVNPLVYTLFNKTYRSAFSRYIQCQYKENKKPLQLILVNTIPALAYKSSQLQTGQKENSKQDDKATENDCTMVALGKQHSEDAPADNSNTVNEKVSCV

Row | Structure (SMILES) | Ki [1] [µM] | Ki [2] [µM] | Ki [3] [µM] | Ki [4] [µM]
1 | CN1C[C@H](C(=O)N[C@@H]2CCC[C@@H]2O)C[C@@H]2c3cccc4[nH]cc(c34)C[C@H]21 [N-[(1R,2S)-2-Hydroxycyclopentyl]-6-methylergoline-8-beta-carboxamide] | 0.0644 | – | – | –
2 | COC1CCC(OC(=O)[C@@H]2C[C@@H]3c4cccc5[nH]cc(c45)C[C@H]3N(C)C2)CC1 (stereo partly specified) [LY-254239] | 0.042 | – | – | –
3 | NCCc1c[nH]c2ccc(Br)cc12 | 3.24 | 1.52 | – | –
4 | CC(O)C(C)OC(=O)C1CC2c3cccc4[nH]cc(c34)CC2N(C)C1 (stereo unspecified) [LY86057] | 0.0559 | 0.0033 | 0.0046 | 0.0032
5 | CC(O)C(C)OC(=O)C1CC2c3cccc4c3c(cn4C(C)C)CC2N(C)C1 (stereo unspecified) [CAS_60634-51-7] | 0.0072 | 0.0306 | 0.04 | 0.0331
6 | CN1C[C@@H](NS(=O)(=O)N(C)C)C[C@@H]2c3cccc4c3c(cn4C)C[C@H]21 [MESULERGINE] | – | – | 0.0542 | 0.0449
7 | COc1ccc2[nH]cc(CCN)c2c1 [tryptamine, 5-Methoxy] | – | 0.943 | 0.923 | –
8 | CC(CO)NC(=O)C1C=C2c3cccc4[nH]cc(c34)CC2N(C)C1 (stereo unspecified) [CAS_60-79-7] | 0.0464 | 0.0311 | 0.0038 | 0.0034
9 | CC(C)n1cc2c3c(cccc31)C1CC(C(=O)NC3CCCC3O)CN(C)C1C2 (stereo unspecified) [NSC_132049] | 0.0058 | 0.0277 | – | –
10 | CC(C)Cn1cc2c3c(cccc31)[C@H]1C[C@@H](C(=O)OC(C)C(C)O)CN(C)[C@@H]1C2 (stereo partly specified) [LY-197541] | 0.242 | – | 0.148 | 0.153
11 | Cc1ccc2[nH]cc(CCN)c2c1 [5-Methyl-tryptamine, 10] | 6.15 | 3.22 | – | –
12 | CC(O)C(C)OC(=O)[C@@H]1C[C@@H]2c3cccc4c3c(cn4C)C[C@H]2N(C)C1 (stereo partly specified) [1,6-Dimethylergoline-8-carboxylic acid 2-hydroxy-1-methylpropyl ester] | 0.0093 | – | 0.0572 | 0.0568
13 | Cc1ccc2c(c1)c(CCN)cn2C(C)C [1-Isopropyl-5-Methyltryptamine] | 4.68 | > 10 | – | –
14 | NCCc1c[nH]c2ccccc12 [1H-indole-3-ethanamine] | > 10 | 3 | 3.39 | –
15 | COC1CCC(OC(=O)C2CC3c4cccc5c4c(cn5C(C)C)CC3N(C)C2)CC1 (stereo unspecified) [NSC_60262] | 0.0109 | – | – | –
16 | CN1C[C@H](CNC(=O)OCc2ccccc2)C[C@@H]2c3cccc4c3c(cn4C)C[C@H]21 [METERGOLINE] | – | – | 0.00037 | 0.00082
17 | CC(C)n1cc(CCN)c2ccccc21 [1-Isopropyltryptamine] | 3.86 | 7.03 | 5.72 | –
18 | CC(C)n1cc(CCN)c2cc(Br)ccc21 [5-Br-T, 1-Isopropyl] | 3.44 | 6.24 | – | –
19 | COc1ccc2c(c1)c(CCN)cn2C(C)C [1-Isopropyl-5-Methoxytryptamine] | 3.56 | – | 7.29 | –
20 | CC(C)n1cc2c3c(cccc31)C1CC(C(=O)NC3CCCCC3)CN(C)C1C2 (stereo unspecified) [NSC_60740] | 0.0069 | – | 0.0307 | 0.0265
21 | CN1C[C@H](C(=O)NC2CCCCC2)C[C@@H]2c3cccc4[nH]cc(c34)C[C@H]21 [LY-193525] | 0.0416 | – | 0.0036 | 0.0021
